Results: PubChem BioAssay (NCI)
“And” between values parts separate entries of the source, which are not always exact repeats. Identical values can stand only once.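 48-hour exposure; five concentrations; linearly interpolated endpoints. Here, GI50 denotes the concentration required for 50% inhibition of growth. At the TGI there is no net growth.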

What follows are compounds tested on NCI/ADR-RES ovarian (assay: DTP human tumour cell line panel, 48 h).
For `COC(=O)/C=C(/C=C1/C(C#N)=C(N)N(c2ccc(Cl)cc2)C1(C)/C(=C\C(=O)OC)C(=O)OC)C(=O)OC` (configuration not stated), the TGI was 36.9 µM.
Compound `Cc1c2ccnc(C(N)=O)c2c(C)c2c1[nH]c1ccccc12` has a TGI of 34 µM.
With `O=c1c2c3c(sc2[nH]c(=S)n1-c1ccccc1)CCCc1ccc([N+](=O)[O-])cc1-3` the TGI was 74 µM.
For `CCOC1C=CC(=O)C(CO)O1` (configuration not stated), the TGI was 33.2 µM.
For `Cc1c2cccc-2c2cc(O)c3ccccc3c2n1-c1ccc(N(C)C)cc1`, the TGI was 30.7 µM.
In the case of `O=CC(I)=C(c1ccccc1)c1ccccc1`, the TGI is reported as 45.1 µM.
In the case of `Cn1c2ccccc2c2ccc3c(c21)C(=O)c1ccc2c4ccccc4n(C)c2c1C3=O`, the TGI is reported as over 100 µM.
`Cc1ccc(-c2cc(-c3ccco3)c(C#N)c(=S)[nH]2)cc1` gave a TGI of over 100 µM.
With `COC(=O)c1ccccc1C1CN=NC12Cc1c(ccc(C)c1C)C2=O` (configuration not stated) the TGI was over 100 µM.
`CN(C)CCN(c1ccccn1)c1ccccn1` gave a TGI of over 100 µM.
For `O=C(O)c1nc2ccc(C(F)(F)F)cc2[nH]c1=O`, the TGI was over 100 µM.
`CC(C)NC(=O)OCc1c(COC(=O)NC(C)C)n(C)c2c1ccc1sccc12` was tested, and the TGI was over 55.7 µM.
Compound `O=C(CC(NC(=O)C(F)(F)F)C(=O)O)OCc1ccccc1` (configuration not stated) has a TGI of over 100 µM.
Work on `O=C1C=CC2(O[C@H](c3ccccc3)[C@@H](c3ccccc3)O2)[C@H](Sc2ccccc2O)C1` yielded a TGI of 10 µM.

The compounds below were run on OVCAR-8 ovarian (assay: DTP human tumour cell line panel, 48 h).
`O=c1c(F)cn2c(=O)n1CCCCCCCn1c(=O)c(F)cn(c1=O)CCCCCCC2` was tested, and the TGI was over 100 µM.
Compound `O=C(ON=C1c2ccccc2C(Br)C(Br)c2ccccc21)c1ccccc1` (configuration not stated) has a TGI of 30.8 µM.
In the case of `CC(=O)c1ccc(Oc2c3ccccc3nc3ccccc23)cc1`, the TGI is reported as 22.2 µM.
Compound `Cn1c2ccccc2n2c3ncccc3c(=O)c(C#N)c12` has a TGI of 23.5 µM.
With `COc1ccc2nc(NC(=O)/C(C#N)=C/c3ccccc3)sc2c1` the TGI was over 100 µM.
Compound `Cc1nc2ccc(Cl)cc2c(-n2ccnc2)c1CCn1ccnc1` has a TGI of 3.37 µM.
In the case of `Cc1c(C)n(-c2ccccc2)c2nc(S(C)=O)nc(S(C)=O)c12` (configuration not stated), the TGI is reported as 12.4 µM.
In the case of `CC1(C)CC(=O)C2=C(C1)C(c1ccccc1Cl)C1C(=O)CC(C)(C)CC1(O)O2` (configuration not stated), the TGI is reported as over 100 µM.
Compound `C[C@@H]1CC[C@@]2(C)C(C(=O)O)=CCCC2[C@@]1(C)CC(=O)c1ccoc1` (some centres not stated) has a TGI of over 25 µM.
Work on `O=C(CCc1cc(O)cc(O)c1)NCCc1cc(OCc2ccccc2)cc(OCc2ccccc2)c1` yielded a TGI of 50.6 µM.
With `c1ccc(C2=NC3OC2c2ccccc23)cc1` (configuration not stated) the TGI was over 10 µM.
Work on `CCOC(=O)CSc1nc(N)c2c(-c3ccccc3)c3c(nc2n1)CCCC3` yielded a TGI of over 100 µM.
`COC(=O)/C=C(/C=C1/C(C#N)=C(N)N(c2ccc(Cl)cc2)C1(C)/C(=C\C(=O)OC)C(=O)OC)C(=O)OC` (configuration not stated) gave a TGI of 33.7 µM.
With `Cc1c2ccnc(C(N)=O)c2c(C)c2c1[nH]c1ccccc12` the GI50 was 4.87 µM and the TGI was 19.1 µM and > 100 µM.
In the case of `O=c1c2c3c(sc2[nH]c(=S)n1-c1ccccc1)CCCc1ccc([N+](=O)[O-])cc1-3`, the TGI is reported as over 100 µM.
`CCOC1C=CC(=O)C(CO)O1` (configuration not stated) was tested, and the TGI was 26 µM.
For `Cc1c2cccc-2c2cc(O)c3ccccc3c2n1-c1ccc(N(C)C)cc1`, the TGI was 33.8 µM.
`O=CC(I)=C(c1ccccc1)c1ccccc1` showed a TGI of 53.8 µM.
`Cn1c2ccccc2c2ccc3c(c21)C(=O)c1ccc2c4ccccc4n(C)c2c1C3=O` showed a TGI of over 100 µM.
`Cc1ccc(-c2cc(-c3ccco3)c(C#N)c(=S)[nH]2)cc1` was tested, and the TGI was over 100 µM.
`COC(=O)c1ccccc1C1CN=NC12Cc1c(ccc(C)c1C)C2=O` (configuration not stated) gave a TGI of over 100 µM.
`CN(C)CCN(c1ccccn1)c1ccccn1` was tested, and the TGI was over 100 µM.
`O=C(O)c1nc2ccc(C(F)(F)F)cc2[nH]c1=O` was tested, and the TGI was over 100 µM.
Work on `CC(C)NC(=O)OCc1c(COC(=O)NC(C)C)n(C)c2c1ccc1sccc12` yielded a TGI of over 100 µM.
`O=C(CC(NC(=O)C(F)(F)F)C(=O)O)OCc1ccccc1` (configuration not stated) was tested, and the TGI was over 100 µM.
`O=C1C=CC2(O[C@H](c3ccccc3)[C@@H](c3ccccc3)O2)[C@H](Sc2ccccc2O)C1` showed a TGI of 0.217 µM.

These compounds were tested on SK-MEL-5 melanoma (assay: DTP human tumour cell line panel, 48 h).
Work on `O=c1c(F)cn2c(=O)n1CCCCCCCn1c(=O)c(F)cn(c1=O)CCCCCCC2` yielded a TGI of over 100 µM.
`O=C(ON=C1c2ccccc2C(Br)C(Br)c2ccccc21)c1ccccc1` (configuration not stated) showed a TGI of 31.7 µM.
`CC(=O)c1ccc(Oc2c3ccccc3nc3ccccc23)cc1` gave a TGI of 28.6 µM.
Work on `Cn1c2ccccc2n2c3ncccc3c(=O)c(C#N)c12` yielded a TGI of 21.5 µM.
Compound `COc1ccc2nc(NC(=O)/C(C#N)=C/c3ccccc3)sc2c1` has a TGI of over 73.6 µM.
With `Cc1nc2ccc(Cl)cc2c(-n2ccnc2)c1CCn1ccnc1` the TGI was 46.4 µM.
In the case of `Cc1c(C)n(-c2ccccc2)c2nc(S(C)=O)nc(S(C)=O)c12` (configuration not stated), the TGI is reported as 6.1 µM.
Work on `CC1(C)CC(=O)C2=C(C1)C(c1ccccc1Cl)C1C(=O)CC(C)(C)CC1(O)O2` (configuration not stated) yielded a TGI of over 100 µM.
`C[C@@H]1CC[C@@]2(C)C(C(=O)O)=CCCC2[C@@]1(C)CC(=O)c1ccoc1` (some centres not stated) gave a TGI of over 25 µM.
Compound `O=C(CCc1cc(O)cc(O)c1)NCCc1cc(OCc2ccccc2)cc(OCc2ccccc2)c1` has a TGI of 25.6 µM.
In the case of `c1ccc(C2=NC3OC2c2ccccc23)cc1` (configuration not stated), the TGI is reported as over 10 µM.
Work on `CCOC(=O)CSc1nc(N)c2c(-c3ccccc3)c3c(nc2n1)CCCC3` yielded a TGI of over 100 µM.
In the case of `COC(=O)/C=C(/C=C1/C(C#N)=C(N)N(c2ccc(Cl)cc2)C1(C)/C(=C\C(=O)OC)C(=O)OC)C(=O)OC` (configuration not stated), the TGI is reported as 29.4 µM.
Work on `Cc1c2ccnc(C(N)=O)c2c(C)c2c1[nH]c1ccccc12` yielded a TGI of 13.6 µM.
Compound `O=c1c2c3c(sc2[nH]c(=S)n1-c1ccccc1)CCCc1ccc([N+](=O)[O-])cc1-3` has a TGI of over 100 µM.
`CCOC1C=CC(=O)C(CO)O1` (configuration not stated) gave a TGI of 37.1 µM.
With `Cc1c2cccc-2c2cc(O)c3ccccc3c2n1-c1ccc(N(C)C)cc1` the TGI was 24.1 µM.
`O=CC(I)=C(c1ccccc1)c1ccccc1` showed a TGI of 31.9 µM.
Compound `Cn1c2ccccc2c2ccc3c(c21)C(=O)c1ccc2c4ccccc4n(C)c2c1C3=O` has a TGI of over 100 µM.
`Cc1ccc(-c2cc(-c3ccco3)c(C#N)c(=S)[nH]2)cc1` gave a TGI of 61.9 µM.
In the case of `COC(=O)c1ccccc1C1CN=NC12Cc1c(ccc(C)c1C)C2=O` (configuration not stated), the TGI is reported as over 100 µM.
For `CN(C)CCN(c1ccccn1)c1ccccn1`, the TGI was over 100 µM.
Compound `O=C(O)c1nc2ccc(C(F)(F)F)cc2[nH]c1=O` has a TGI of over 100 µM.
Work on `CC(C)NC(=O)OCc1c(COC(=O)NC(C)C)n(C)c2c1ccc1sccc12` yielded a TGI of 26.3 µM.
`O=C(CC(NC(=O)C(F)(F)F)C(=O)O)OCc1ccccc1` (configuration not stated) was tested, and the TGI was over 100 µM.
With `O=C1C=CC2(O[C@H](c3ccccc3)[C@@H](c3ccccc3)O2)[C@H](Sc2ccccc2O)C1` the TGI was 2.22 µM.
